Data taken from patent US20040248766A1, “Selective inhibition of intracellular amyloid-beta neurotoxicity in human neurons” (priority 2001, published 2004).
Values joined by “and” are separate entries in the source; they are usually repeats but may differ in a detail not shown here. Identical values can stand only once. “Also recorded” adds a separate entry of the source.

Key:
[1] = tested on: primary human neurons; assay: Microinjection of Aβ peptides into the cytosol of primary human neurons, cell death by TUNEL; format: cell-based; conditions: for number of molecules toxic (as few as / as little as): microinjected neurons
Method: (§1) Cell cultures. Primary cultures of human neurons and astrocytes were prepared as described in LeBlanc, A., J. Neurosci. 15:7837-46 (1995), incorporated herein by reference. Fresh brain tissues were dissociated with 0.25% trypsin (Gibco-BRL) in phosphate buffered saline (PBS) at 37° C. for 15 minutes. The trypsin was inactivated. by adding 10% decomplemented fetal bovine serum (FBS, HyClone, Logan, Utah.) to the mixture. The dissociated tissues were triturated in 0.1 mg/ml DNaseI (Gibco-BRL) to obtain a homogeneous mixture. The mixture was filtered successively through 130 and 70 gm filters and centrifuged at 15,000 g for 10 minutes at 10° C. to pellet the cells. The cell pellet was washed once with PBS and once with minimal essential media (MEM, Gibco-BRL) in Earle's balanced salt solution containing 0.225% sodium bicarbonate, 1 mM sodium pyruvate, 2 mM L-glutamine, 0.1% dextrose, 1×antibiotic Pen-Strep (all from Gibco-BRL) and 5% decomplemented FBS.
The cells were plated on poly-L-lysine-coated ACLARTM (Cat. No.: 33C; thickness: 0.5 mm; Allied Chemical, Minneapolis, Minn.) coverslips at a density of 3×10^6 cells/ml. Neurons and astrocytes were incubated at 37° C. in the MEM media with 5% CO2, and the media were changed every 48 hours. For neuron culture, 1 mM fluorodeoxyuridine (FDU, Gibco-BRL) was applied for the first 3 feedings and after that, used weekly to prevent proliferation of dividing cells. […] Microinjection or treatment was performed 10 days after plating for neurons and astrocytes.
Aβ peptides. Aβ peptides (Bachem, King of Prussia, Pa.) were dissolved in sterile distilled water at 25 μM and incubated at 37° C. for 5 days. The peptides stock solutions were frozen and diluted in 1×PBS immediately before microinjection. […] A 250 μl aliquot was diluted to 0.25 μM and immediately frozen at −20° C. in aliquots of 50 μl. The remaining solution was incubated at 37° C. in Eppendorf tubes with continuous mixing by inversion. After incubation, the samples were removed, vortexed, sonicated twice for 1 minute in a bath type sonicator (ELMA GmbH & Co. KG, Germany) and frozen at −20° C. in […]. Each aliquot was used once to avoid possible effects of freeze and thaw cycles.
(§2) Microinjection. Thin-walled Borosilicate glass capillaries (OD 1.0 mm, ID 0.5 mm) with microfilament (MTW1OOF-4, World Precision Instrument, Sarasota, Fla.) were pulled with a Flaming/Brown Micropipefte Puller (β-87, Sutter, Novato, Calif.) to obtain injection needles with a tip diameter of ˜0.5 μm. Microinjection was performed in the cytosol of each cell using the Eppendorf Microinjector 5246 (Hamburg, Germany) and Burleigh Micromanipulator MIS-5000 (Victor, N.Y.). Human neurons were injected with 25 pl/shot at an injection pressure of 100 hPa, a compensation pressure of 50 hPa, and an injection time of 0.1 s. Human astrocytes, M17, NT2 and La—N-1 cells were injected with 8 pl/shot at an injection pressure of 50 hPa, a compensation pressure of 30 hPa and an injection time of 0.1 s.
The diluted peptides were injected at the indicated concentrations with 100 μg/ml dextran Texas Red (DTR) (MW: 3000, Molecular Probes, Eugene, Oreg.) as a fluorescent marker to recognize the injected cells.
(§3) Measurement of neuronal apoptosis. Cells were fixed in freshly prepared 4% paraformaldehyde/4% sucrose for 20 minutes at room temperature and permeabilized in 0.1% Triton X-100, 0.1% sodium citrate on ice for 2 minutes. Terminal deoxynucleotidyl transferase-mediated dUTP nick end labeling (TUNEL) was performed using the In Situ Cell Death Detection Kit I as described by the manufacturer (Roche Molecular Biochemicals).

[2] = tested on: human neurons; assay: Exposure of human neurons to extracellular Aβ peptides, TUNEL and propidium iodide; format: cell-based; conditions: 10 μM extracellular, 24 hours
Method: To test if this particular batch of peptide might be neurotoxic, neurons were treated with 10 μM of peptides for 24 hours.

[3] = tested on: primary human astrocytes; assay: Microinjection of Aβ1-42 into primary human astrocytes, TUNEL/Hoechst; format: cell-based; conditions: up to 100 nM / 8×10^−19 moles injected, 24 hours
Method: as §1, with “FBS. […]” for “FBS.”
Measurement of neuronal apoptosis. […] The percentage of cell death was determined as the ratio of the number of DTR-TLUNEL-double-positive cells over the total number of DIR-positive cells. […]
Cell death was identified by TUNEL staining and nuclei detected with Hoechst staining. […] The faint green fluorescence detected in these cells is the results of bleed-through from the red DTR fluorescence on the microscope.

[4] = tested on: human neuroblastoma La-N-1; assay: Microinjection of Aβ1-42 into La-N-1 cells, TUNEL; format: cell-based; conditions: La-N-1, up to 8×10^−19 moles injected, 24 hours
Method: (§4) Human neuroblastoma M17 cells were cultured on ACLAR™ coverslips at 1×10^6 cells/ml in OPTI-MEM (Gibco-BRL) containing 5% FBS. Microinjection was performed when the cells reached 70-80% confluence on the coverslips. Human teratocarcinoma NT2 (Stratagene, La Jolla, Calif.) and neuroblastoma La-N-1 cells were cultured on ACLAR™ coverslips at 1×10^6 cells/ml in DMEM (Gibco-BRL) containing 10% FBS. Microinjection was performed when the cells were 50% confluent.
as §2, with “Human astrocytes, M17, NT2 and La—N-1 cells were injected with 8 pl/shot at an injection pressure of 50 hPa, a compensation pressure of 30 hPa and an injection time of 0.1 s.” left out
(§5) Measurement of neuronal apoptosis. […] The percentage of cell death was determined as the ratio of the number of DTR-TLUNEL-double-positive cells over the total number of DIR-positive cells.

[5] = tested on: human neuroblastoma M17; assay: Microinjection of Aβ1-42 into M17 cells, TUNEL; format: cell-based; conditions: M17, up to 8×10^−19 moles injected, 24 hours
Method: as §4
as §2, with “Human astrocytes, M17, NT2 and La—N-1 cells were injected with 8 pl/shot at an injection pressure of 50 hPa, a compensation pressure of 30 hPa and an injection time of 0.1 s.” left out
as §5

[6] = tested on: human teratocarcinoma NT2; assay: Microinjection of Aβ1-42 into NT2 cells, TUNEL; format: cell-based; conditions: NT2, up to 8×10^−19 moles injected, 24 hours
Method: as §4
as §2, with “Human astrocytes, M17, NT2 and La—N-1 cells were injected with 8 pl/shot at an injection pressure of 50 hPa, a compensation pressure of 30 hPa and an injection time of 0.1 s.” left out
as §5

[7] = tested on: NIH 3T3 fibroblasts; assay: Microinjection of Aβ1-42 into NIH 3T3 fibroblasts, TUNEL; format: cell-based, mice; conditions: 24 hours
[8] = tested on: baby hamster kidney (BHK) cell lines; assay: Microinjection of Aβ1-42 into BHK cells, TUNEL; format: cell-based; conditions: 24 hours
[9] = determined in a medium or extracellularly; cited from earlier work
[10] = tested on: Aβ1-42-mediated neuronal cell death; assay: Inhibition of Aβ1-42-mediated neuronal cell death in Aβ1-42-microinjected neurons, TUNEL; format: cell-based, human; conditions: 20 mM, 1 hour pre-incubation, 24 hours
Method: cDNA Clones. Human Bcl-2 cDNA, Bax α cDNA, and APP695 cDNA were cloned into pCep4β (Invitrogen Canada, Burlington, ON, Canada). The p53 wild type and p53R273H dominant negative cDNA may be cloned in the pCMV-NEO vector. These cDNAs were purified through GlassMAXTM (Gibco-BRL, Rockville, Mass.) and diluted at 30 ng/μl in PBS before injection.
Neutralizing Bax antibodies. Monoclonal anti-Bax 6A7 (amino acids 12-24: Pharmingen, San Diego, Calif.) and 2D2 (amino acids 3-16: Trevigen, Gaithersburg, Md.), polyclonal anti-Bax N-20 (Santa Cruz Biotechnology, Santa Cruz, Calif.), monoclonal anti-APP 22C11 (Roche Molecular Biochemicals, Laval, PQ, Canada), mouse IgG or rabbit sera were diluted at 50 μg/ml (for 6A7, 2D2, mouse IgG and 22C11) or 25 μg/ml (for polyclonal anti-Bax and rabbit sera) in PBS before use. A toxicity curve was done to determine this concentration as the highest non-toxic concentration that can be injected in neurons.
as §2
as §3, with “Biochemicals). The percentage of cell death was determined as the ratio of the number of DTR-TLUNEL-double-positive cells over the total number of DIR-positive cells.” for “Biochemicals).”
Treatment with caspase inhibitors, cycloheximide, actinomycin D. Caspase pan inhibitor, Z-Valine-Alanine-Aspartic acid-fluoromethylketone (Z-VAD-fmk) (Biomol, Plymounth Meeting, PA); caspase-6 inhibitor, Z-Valine-Glutamic acid-Isoleucine-Aspartic acid-fmk (Z-VEID-fnk); caspase-3 inhibitor, Z-Aspartic acid-Glutamic acid-Valine-Aspartic acid-fmk (Z-DEVD-fmk); and caspase-8 inhibitor, Z-Isoleucine-Glutamic acid-Threomine-Aspartic acid-fmk (Z-IETD-fmk) (Sigma, Oakville, ON, Canada) were dissolved in 100% dimethylsulphoxide (DMSO, Sigma) at 5 mM and were diluted at 5 μM into culture medium immediately before use. The medium was changed every 48 hours.
Stock solutions of 5 mg/ml cycloheximide and 200 IM actinomycin D were made in sterile distilled water and diluted to 5 μg/ml for cycloheximide and 5 μM for actinomycin D in the culture medium immediately before use.
Dextran Texas Red (DTR) was co-injected with Aβ1-42 to identi the injected cells from the non-injected cells. The experiment was done on 200 microinjected neurons per preparation of neurons and on three independent neuron preparations.

[11] = tested on: human neurons; assay: Neuronal cell death caused by the agent alone (without Aβ1-42); format: cell-based; conditions: 20 mM, DTR-injected neurons, 24 hours
Method: as §3

Aβ1-42: 42 amino acid amyloid β peptide (SEQ ID NO: 2), aged 5 days at 37° C.
cell death of microinjected neurons ([1]; 10 nM aged peptide, 48 hours after injection): 78%
amount delivered into the neuron cytosol sufficient to induce rapid neuronal death ([1]; 25 pl/shot of 10 nM): 2.5e-19 mol
apoptosis of microinjected neurons ([1]; 25×10^−21 moles intracellular, within 24 hours after injection): 70%
cell death of microinjected neurons ([1]; 100-fold dilution in the amount injected (25 pl/shot of 10 nM)): 50%
number of molecules giving 50% toxicity ([1]; based on the Avogadro number): 1505.5 molecules/neuron
number of molecules injected giving maximal toxicity ([1]; based on the Avogadro number): 150,055 molecules
toxic concentration of injected peptide in the cytosol ([1]; calculated from injected moles and cytosolic volume 2.5 nL): 1 pM and 1 to 100 pM
number of molecules toxic (as few as / as little as) [1]: 1500 molecules
number of molecules toxic (as few as / as little as) ([1]; listed as Aβ42): 150.5 molecules
intracellular toxicity to human neurons (in words) ([1]; peptide microinjected into cytosol): rapidly induces cell death
reduction of concentration that still exerts significant toxicity ([1]; relative to 25×10^−21 moles/cell, FIG. 1C): 100 to 1000 fold
toxicity of extracellular peptide (in words) [2]: do not undergo cell death; also recorded: Neither extracellular Aβ1-40, Aβ1-42, or Aβ40-1 are toxic
intracellular toxicity (in words) [3]: not observed to be toxic; also recorded: completely resist; also recorded: do not show any sign of condensed chromatin by Hoechst staining, nor positive nuclei TUNEL staining
intracellular toxicity (in words) ([3]; listed as Aβ42): remain resistant
intracellular toxicity (in words) [4]: not observed to be toxic; also recorded: completely resist; also recorded: fails to induce cell death
intracellular toxicity (in words) ([4]; listed as Aβ42): remain resistant
intracellular toxicity (in words) [5]: not observed to be toxic; also recorded: completely resist; also recorded: fails to induce cell death
intracellular toxicity (in words) ([5]; listed as Aβ42): remain resistant
intracellular toxicity (in words) [6]: not observed to be toxic; also recorded: completely resist; also recorded: fails to induce cell death
intracellular toxicity (in words) ([6]; listed as Aβ42): remain resistant
intracellular toxicity (in words) [7]: not observed to be toxic; also recorded: fails to induce cell death
intracellular toxicity (in words) [8]: not observed to be toxic; also recorded: fails to induce cell death
toxic concentration known in the art [9]: 10 to 100 µM

[Cl-].[Li+] [LiCl2]
protection against intracellular Aβ1-42 toxicity (in words) [10]: efficiently protected
cell death with agent and DTR only (in words) [11]: did not undergo cell death
